Measured values reported in the NIST ThermoML archive (doi:10.1007/s10765-013-1469-0).
± gives the expanded uncertainty stated by the source.

Assay: xn = mol fraction of the nth substance listed
Conditions: 101 kPa, Liquid; for viscosity: Concentric cylinders viscometry; for mass density: Vibrating tube method

COCCOCCOCCOCCOC [2,5,8,11,14-pentaoxapentadecane] + CCCCO
Conditions | mass density, 288.15 K [kg/m3] | mass density, 293.15 K [kg/m3] | mass density, 298.15 K [kg/m3] | mass density, 303.15 K [kg/m3] | mass density, 308.15 K [kg/m3] | viscosity, 288.15 K [mPa·s] | viscosity, 293.15 K [mPa·s] | viscosity, 298.15 K [mPa·s] | viscosity, 303.15 K [mPa·s] | viscosity, 308.15 K [mPa·s]
x2 = 0 | 1015.63 ± 0.1 | 1011 ± 0.1 | 1006.36 ± 0.1 | 1001.73 ± 0.098 | 997.104 ± 0.098 | 4.341 ± 0.04 | 3.834 ± 0.035 | 3.38 ± 0.031 | 3.004 ± 0.028 | 2.691 ± 0.025
x2 = 0.1013 | 1006.51 ± 0.098 | 1001.91 ± 0.099 | 997.307 ± 0.098 | 992.702 ± 0.1 | 988.097 ± 0.1 | 4.077 ± 0.037 | 3.591 ± 0.033 | 3.152 ± 0.029 | 2.814 ± 0.026 | 2.525 ± 0.024
x2 = 0.2236 | 993.986 ± 0.096 | 989.415 ± 0.1 | 984.881 ± 0.1 | 980.276 ± 0.1 | 975.701 ± 0.1 | 3.779 ± 0.035 | 3.315 ± 0.031 | 2.93 ± 0.027 | 2.62 ± 0.025 | 2.357 ± 0.022
x2 = 0.3036 | 984.642 ± 0.098 | 980.1 ± 0.1 | 975.56 ± 0.1 | 971.014 ± 0.1 | 966.466 ± 0.11 | 3.567 ± 0.033 | 3.139 ± 0.029 | 2.783 ± 0.026 | 2.488 ± 0.023 | 2.241 ± 0.021
x2 = 0.4131 | 969.983 ± 0.1 | 965.493 ± 0.11 | 960.897 ± 0.11 | 956.499 ± 0.11 | 951.994 ± 0.11 | 3.317 ± 0.031 | 2.922 ± 0.027 | 2.599 ± 0.024 | 2.328 ± 0.022 | 2.1 ± 0.02
x2 = 0.5065 | 955.349 ± 0.1 | 950.916 ± 0.11 | 946.305 ± 0.11 | 942.026 ± 0.11 | 937.569 ± 0.11 | 3.129 ± 0.029 | 2.77 ± 0.026 | 2.462 ± 0.023 | 2.208 ± 0.021 | 1.991 ± 0.019
x2 = 0.5996 | 938.288 ± 0.11 | 933.921 ± 0.12 | 929.548 ± 0.12 | 925.164 ± 0.12 | 920.77 ± 0.12 | 2.945 ± 0.027 | 2.603 ± 0.024 | 2.321 ± 0.022 | 2.087 ± 0.02 | 1.885 ± 0.018
x2 = 0.7007 | 916.154 ± 0.11 | 911.881 ± 0.12 | 907.599 ± 0.12 | 903.304 ± 0.12 | 898.993 ± 0.12 | 2.795 ± 0.026 | 2.474 ± 0.023 | 2.206 ± 0.021 | 1.987 ± 0.019 | 1.796 ± 0.017
x2 = 0.7991 | 889.873 ± 0.12 | 885.715 ± 0.13 | 881.548 ± 0.13 | 877.365 ± 0.13 | 873.162 ± 0.13 | 2.74 ± 0.026 | 2.428 ± 0.023 | 2.165 ± 0.021 | 1.945 ± 0.019 | 1.757 ± 0.017
x2 = 0.8996 | 856.379 ± 0.13 | 852.384 ± 0.14 | 848.369 ± 0.14 | 844.334 ± 0.14 | 840.275 ± 0.14 | 2.875 ± 0.027 | 2.546 ± 0.024 | 2.263 ± 0.021 | 2.015 ± 0.019 | 1.807 ± 0.017
